Some test systems named below: LOX IMVI melanoma; SW-620 colon; K-562 leukemia; ACHN renal; COLO 205 colon; MDA-MB-435; IGROV1 ovarian; MDA-N; NCI-H460 lung; OVCAR-3 ovarian.
Common to all, as to assay: inhibition of tumour cell growth, NCI panel, 48 h

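The compound was tested at five concentrations on cells cultured in 96-well plates, with a 48-hour exposure period. TGI: concentration producing complete growth inhibition.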

On to `CC(=O)Nc1ccc2c3c(cc(O)c2c1)N(C(=O)CCCCCCC(=O)N1CC(CCl)c2c1cc(O)c1cc(NC(C)=O)ccc21)CC3CCl` (stereo unspecified), for which the TGI was 0.361 µM in the experiment on LOX IMVI melanoma; more than 100 µM in the experiment with SW-620 colon; more than 100 µM in the experiment with K-562 leukemia; 0.0345 µM in the experiment with ACHN renal; 0.0161 µM in the experiment with COLO 205 colon; 0.0604 µM in the experiment with MDA-MB-435. Besides, the TGI in the experiment with IGROV1 ovarian was determined as 0.499 µM.

For `CC1=C(c2ccccc2)NC(=S)C(C)C(c2ccccc2)=N1` (stereo unspecified), the TGI was 46.8 µM with MDA-N; more than 100 µM in the experiment with LOX IMVI melanoma; more than 100 µM in the experiment on NCI-H460 lung; more than 100 µM with SW-620 colon; 28.6 µM with K-562 leukemia; more than 100 µM in the experiment on ACHN renal. Further, the TGI with COLO 205 colon was more than 100 µM; in the experiment on MDA-MB-435 it was 69.3 µM; with IGROV1 ovarian, more than 100 µM.

On to `CC1=C(O)C(=O)C2C(=O)C1C1Cc3ccccc3C21` (stereo unspecified), for which the TGI in the experiment with LOX IMVI melanoma, in the experiment with SW-620 colon, with K-562 leukemia, with ACHN renal, with COLO 205 colon and with IGROV1 ovarian was more than 100 µM in each case. The compound further yielded a TGI in the experiment on OVCAR-3 ovarian of more than 100 µM.

Turning to `CC(C)NC(=O)OCc1c(CO)c2c(n1C)-c1ccccc1CC2`, the TGI in the experiment on LOX IMVI melanoma was 56.8 µM; in the experiment on NCI-H460 lung, 67.7 µM; with SW-620 colon it was 38.8 µM; in the experiment with K-562 leukemia, 46 µM; in the experiment with COLO 205 colon it was 44.7 µM; in the experiment with IGROV1 ovarian, more than 77.6 µM. Further, the TGI in the experiment with OVCAR-3 ovarian turned out to be 66.9 µM.

With `CCOc1ccc(N/C(=C(/C(Cl)=C(/Cl)N2CCCCC2)[N+](=O)[O-])n2nnc3ccccc32)cc1`, the TGI is 52.4 µM with MDA-N; 70.4 µM in the experiment with NCI-H460 lung; more than 100 µM with K-562 leukemia; 36 µM in the experiment on ACHN renal; 42.5 µM with COLO 205 colon; 32.3 µM with MDA-MB-435. In the experiment with OVCAR-3 ovarian, this compound returned a TGI of 33.7 µM.

Turning to `OC(c1ccc(C(F)(F)F)cc1)C(F)(F)c1nc2ccccc2o1` (stereo unspecified), the TGI in the experiment on LOX IMVI melanoma, in the experiment with NCI-H460 lung, with SW-620 colon, in the experiment on K-562 leukemia, in the experiment with ACHN renal and in the experiment with COLO 205 colon was more than 100 µM each time. The TGI in the experiment with MDA-MB-435 and with IGROV1 ovarian was more than 100 µM throughout.

As to `O=C1C(=O)N(c2cccc(C(F)(F)F)c2)C(=S)N1c1ccccc1`, the TGI in the experiment on MDA-N is 71.9 µM; in the experiment on NCI-H460 lung, 6.49 µM; in the experiment on SW-620 colon, more than 100 µM; with K-562 leukemia, more than 100 µM; in the experiment on ACHN renal, 30.6 µM; with COLO 205 colon, 30.5 µM. In addition, the TGI is 82.4 µM in the experiment with MDA-MB-435 and 63.2 µM in the experiment on IGROV1 ovarian.

`CCCCCCCCCCCCCCCCCCNC(=S)/N=C\C1=C(O)c2ccccc2C1=O`: the TGI in the experiment on MDA-N stood at 31.4 µM; in the experiment on LOX IMVI melanoma, 17 µM; in the experiment with NCI-H460 lung, 26.2 µM; with SW-620 colon it was 25.3 µM; in the experiment on ACHN renal, 26.2 µM; in the experiment with COLO 205 colon, 29.1 µM. In addition, the TGI in the experiment on MDA-MB-435 worked out at 30.9 µM; with IGROV1 ovarian it was 5.62 µM; in the experiment with OVCAR-3 ovarian, 29.1 µM.

`O=[N+]([O-])C(=C(N1CCOCC1)N1CCOCC1)/C(Cl)=C(\Cl)Br`: the TGI in the experiment with MDA-N was 70.6 µM; in the experiment with LOX IMVI melanoma it was 41.1 µM; in the experiment on NCI-H460 lung, more than 100 µM; in the experiment on SW-620 colon, 28.8 µM; in the experiment on K-562 leukemia, 60.2 µM; in the experiment with ACHN renal it was 54 µM. In addition, the TGI in the experiment on COLO 205 colon was found to be 29.6 µM; with OVCAR-3 ovarian, 28.5 µM.

As to `Cc1cc(Cc2cc(C)c(NC(=O)C(=O)C3CCC4=C(SC5C=CC=CC5N4)C3=O)c(C(C)C)c2)cc(C(C)C)c1NC(=O)C(=O)C1CCC2=C(SC3C=CC=CC3N2)C1=O` (stereo unspecified), the TGI with LOX IMVI melanoma, in the experiment on NCI-H460 lung, in the experiment with SW-620 colon, with K-562 leukemia, with ACHN renal and in the experiment on COLO 205 colon was more than 100 µM throughout. In addition, the TGI in the experiment with MDA-MB-435, in the experiment on IGROV1 ovarian and in the experiment on OVCAR-3 ovarian was more than 100 µM throughout.

For the compound `CS(=O)(=O)c1ccc(N=C/C=C/Nc2ccc(S(C)(=O)=O)cc2)cc1`, the TGI in the experiment on MDA-N, with NCI-H460 lung, with SW-620 colon, with K-562 leukemia, in the experiment with ACHN renal and with COLO 205 colon was more than 100 µM each time. For the same compound, the TGI in the experiment with MDA-MB-435, with IGROV1 ovarian and with OVCAR-3 ovarian was more than 100 µM throughout.

With `COc1ccc(Cc2nnc(Nc3ccc(Br)cc3)[nH]c2=O)cc1OC`, the TGI with LOX IMVI melanoma, in the experiment on NCI-H460 lung, in the experiment on SW-620 colon, in the experiment on K-562 leukemia, in the experiment on ACHN renal and in the experiment with COLO 205 colon was more than 100 µM each time. The results for the TGI in the experiment on MDA-MB-435, in the experiment on IGROV1 ovarian and in the experiment on OVCAR-3 ovarian were 20.7 µM, more than 100 µM and more than 100 µM, respectively.

As for `COc1ccc(/C(Cl)=C(\C=N/O)c2ccc(OC)c(OC)c2)cc1OC`, the TGI in the experiment on LOX IMVI melanoma, with NCI-H460 lung, in the experiment with SW-620 colon, in the experiment with K-562 leukemia, in the experiment on ACHN renal and with COLO 205 colon was more than 100 µM in each case. The TGI in the experiment with IGROV1 ovarian and with OVCAR-3 ovarian was more than 100 µM in each case.

As for `CN(/N=C/c1cccc2cccnc12)c1ccc(Cl)cc1[N+](=O)[O-]`, the TGI with MDA-N, in the experiment on NCI-H460 lung, in the experiment on SW-620 colon, with K-562 leukemia, in the experiment on ACHN renal and with COLO 205 colon was more than 100 µM throughout. Besides, the TGI with MDA-MB-435, in the experiment with IGROV1 ovarian and in the experiment with OVCAR-3 ovarian was more than 100 µM throughout.

Turning to `Cc1c(N2CCN(C)CC2)nc2ccc(Cl)cc2c1-c1ccccc1`, the TGI in the experiment with LOX IMVI melanoma amounted to 28.3 µM; in the experiment with NCI-H460 lung, 33.4 µM; in the experiment on SW-620 colon, 34.6 µM; in the experiment with K-562 leukemia it was 35.7 µM; with ACHN renal it was 57.7 µM; in the experiment with COLO 205 colon it was 29.7 µM. For the same compound, the TGI with OVCAR-3 ovarian was 74.3 µM.

The values above are taken from PubChem BioAssay (NCI).
